Data as given in PMC12326976 (Antimicrobial Agents and Chemotherapy, 2025).
Bridge positions count the residues as written; N and C are the ends. Ends that are not written are not given here. I, II: the chains in the order shown.

Experiments:
rhinovirus A1 [1] = assay type: cell-based
Influenza HA = Influenza HA (Influenza A virus, UniProt C3W5S1); assay: ELISA binding assay, HA; conditions: 4H30 1 µg coated, HA 100 ng, anti-His antibody, Fig. 2a
Protocol: (§1) Peptides (1.0 µg per well) were dissolved in H2O. Influenza HA, NA (Sino, Cat^# 11058-V07B), or LDLR (Sino, Cat^# 10231-H081-50, 100 ng) dissolved in PBS was coated onto ELISA plates, incubated at 4°C overnight, and blocked with BSA at 4°C overnight. HA or VP1 was added to wells for binding and then determined by incubation with goat anti-His-HRP (Invitrogen, Cat^# R93125, 1: 2,000) at 37°C for 30 min. The reaction was developed by adding 100 µL of the TMB single solution (Life Technologies, Cat^# 002023) for 15 min at 37°C and stopped with 50 µL of 1 M H2SO4. Readings were obtained in an ELISA plate reader (Victor 1420 Multilabel Counter; PerkinElmer) at 450 nm.

rhinovirus A1 [2] = assay type: cell-based; remark: listed apart in the source
H1N1 virus [3] = assay type: cell-based, influenza H1N1 virus
rhinovirus A1 [4] = assay: Anti-rhinovirus assay in cardiomyocytes (hIPSC-CMs); assay type: cell-based; conditions: 4H30 25 µg mL^−1; supernatants at 48 hpi; compared to DMEM- and P9RS-treated controls; Fig. 5d
From the text: Cardiomyocytes are generated from human-induced pluripotent stem cells (iPSCs) as we had previously published ([22], [23]). Initially, IMR90 iPSCs are maintained in 12-well plates pre-coated with Matrigel (Thermo Fisher Scientific, USA) using StemFlex Medium (Thermo Fisher Scientific, USA). Subsequently, differentiation into cardiomyocytes is induced with the STEMdiff Ventricular Cardiomyocyte Differentiation Kit (Stem Cell Technologies, USA). This involves the sequential addition of Supplement A from days 1 to 2, Supplement B from days 3 to 4, and Supplement C from days 5 to 8 to cardiomyocyte differentiation basal medium. From day 9 onward, cardiomyocytes are sustained in cardiomyocyte maintenance basal medium with supplement (Stem Cell Technologies, USA). Lactate purification of cardiomyocytes is performed on days 11 to 12. Standard immunofluorescence staining with α-actinin and electrophysiology analysis by the patch clamping technique was performed to confirm their cardiomyocyte phenotype. To infect the cells, Rhinovirus A1 (0.025 TCID50) was treated with or without peptide in the media for infection. […]
Fig 5 4H30 inhibited rhinovirus replication in nasal organoids and cardiomyocytes. […] Viral RNAs were measured on day 1, day 2, and day 3 post-infection. […] Viral RNAs in the cell supernatants were measured by RT-qPCR at the indicated time points. […]

H3N2 virus = assay: Plaque assay, H3N2 in MDCK cells; assay type: cell-based, influenza H3N2 virus; conditions: plaque number normalized to untreated virus, Fig. S2
Protocol: The antiviral activity of peptides was measured by plaque reduction assay. Briefly, peptides were dissolved in PBS or 20% PBS. Peptides (0.2-25.0 µg mL^−1) were premixed with H1N1 virus at room temperature. After 30 min of incubation, the peptide-virus mixture was transferred to MDCK cells for infection at 37°C. At 1 hpi, infectious media were removed, and then 1% low melting agar was added to cells. Cells were fixed using 4% formalin at 2–3 dpi. […] (0.1%) was added to cells for cell staining to count viral plaques.
Fig. S2. The antiviral activity of 4H30 against H3N2 virus in MDCK cells. H3N2 virus was treated with the indicated concentrations of 4H30 to infect MDCK cells. The percentage (%) was the plaque number of virus treated with 4H30 normalized to virus without treatment (0).

LDLR = biological target: T1, LDLR (Homo sapiens, UniProt P01130); assay: ELISA binding assay, LDLR; conditions: 4H30 1.0 µg, 0.25 µg and 0 µg, Fig. 4g
T1 construct: His; purchased Sino 10231-H081-50
Protocol: as §1

rhinovirus A1 [5] = assay: Anti-rhinovirus assay in nasal organoids; assay type: cell-based; conditions: 4H30 25 µg mL^−1; viral loads in supernatants at 24, 48 and 72 hpi; RT-qPCR; Fig. 5b
Protocol: Organoid culture was established according to previous studies ([28], [29]). When the cells differentiated into mature 2D airway organoids within 12–14 days, the 2D organoids were ready for antiviral experiments. Rhinovirus (5000 TCID50) was mixed with peptide (25 µg mL^−1) or without peptides in culture media for organoid infection. After 2 h infection, we removed the infectious media and added fresh media with or without peptides. The supernatants were collected at 2 hpi, 24 hpi, 48 hpi, and 72 hpi to measure the viral loads by RT-qPCR.
Fig 5 4H30 inhibited rhinovirus replication in nasal organoids and cardiomyocytes. (a) Rhinovirus A1 could not replicate efficiently in mice. Rhinovirus (1 × 10^7 TCID50) was intranasally inoculated to mice. Viral RNAs were measured on day 1, day 2, and day 3 post-infection. […] (c) Rhinovirus A1 (0.01 MOI) could effectively replicate in cardiomyocytes. […] Viral RNAs in the cell supernatants were measured by RT-qPCR at the indicated time points. Data are presented as mean ± SD of indicated biological samples.

H1N1 virus [6] = assay type: cell-based, influenza H1N1 virus; remark: listed apart in the source
[7] = test system: neuraminidase activity of H1N1 virus; assay: Viral neuraminidase assay (NA-STAR); assay type: biochemical, influenza H1N1 virus; conditions: 4H30 50 and 12.5 µg mL^−1, 1 h, compared to zanamivir, Fig. S3
Protocol: Fig. S3. […] H1N1 virus was treated with MEM, zanamivir (5 μM and 1.25 μM), and 4H30 (50 μg mL^−1and 12.5 μg mL^−1) for 1 h. The neuraminidase activity was analysed using the Invitrogen NA-STAR INFLUENZA NIRD REAGENT (Cat^# 4374348). Data are presented as mean ± SD of indicated biological samples.

Chain of Influenza HA (C3W5S1 entry or part of it, added parts left off): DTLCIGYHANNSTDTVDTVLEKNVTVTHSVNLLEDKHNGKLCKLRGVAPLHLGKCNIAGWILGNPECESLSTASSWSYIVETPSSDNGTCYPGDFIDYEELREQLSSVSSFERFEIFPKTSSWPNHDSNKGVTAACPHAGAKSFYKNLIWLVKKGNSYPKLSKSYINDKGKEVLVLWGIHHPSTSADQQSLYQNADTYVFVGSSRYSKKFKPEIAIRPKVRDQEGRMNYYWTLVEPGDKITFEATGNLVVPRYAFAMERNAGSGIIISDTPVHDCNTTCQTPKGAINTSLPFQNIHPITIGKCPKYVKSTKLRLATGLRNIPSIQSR
T1 sequence (P01130 22-860): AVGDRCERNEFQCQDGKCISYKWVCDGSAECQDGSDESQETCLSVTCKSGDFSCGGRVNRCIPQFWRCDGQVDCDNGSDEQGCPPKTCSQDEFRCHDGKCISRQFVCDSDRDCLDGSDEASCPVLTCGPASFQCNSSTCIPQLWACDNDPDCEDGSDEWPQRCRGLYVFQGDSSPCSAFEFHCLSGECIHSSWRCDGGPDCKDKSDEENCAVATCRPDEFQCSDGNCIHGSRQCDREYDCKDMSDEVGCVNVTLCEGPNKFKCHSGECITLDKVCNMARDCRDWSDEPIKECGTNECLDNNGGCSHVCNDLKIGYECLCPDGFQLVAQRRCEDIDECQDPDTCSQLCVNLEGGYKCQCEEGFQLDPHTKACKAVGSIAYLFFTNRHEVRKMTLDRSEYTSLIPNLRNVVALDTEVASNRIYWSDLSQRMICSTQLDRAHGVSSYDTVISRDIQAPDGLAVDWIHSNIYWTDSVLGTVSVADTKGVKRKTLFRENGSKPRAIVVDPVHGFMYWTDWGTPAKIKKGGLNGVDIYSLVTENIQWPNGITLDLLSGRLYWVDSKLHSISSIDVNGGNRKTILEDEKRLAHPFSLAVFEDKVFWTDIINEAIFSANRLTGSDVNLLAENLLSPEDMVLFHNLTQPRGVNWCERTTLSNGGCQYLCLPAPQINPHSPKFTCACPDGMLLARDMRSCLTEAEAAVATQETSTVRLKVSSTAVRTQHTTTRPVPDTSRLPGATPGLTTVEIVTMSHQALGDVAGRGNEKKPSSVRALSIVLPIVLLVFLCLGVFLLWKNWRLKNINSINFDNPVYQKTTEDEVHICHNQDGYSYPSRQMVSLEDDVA

In the case of “I: GAICHPVFCPRRYKQIGTCGLPGTKCCKKPKK / II: GAICHPVFCPRRYKQIGTCGLPGTKCCKKPK / III: GAICHPVFCPRRYKQIGTCGLPGTKCCKKP / IV: GAICHPVFCPRRYKQIGTCGLPGTKCCKKP (amide I:31-IV:C, I:32-II:C, II:31-III:C; cysteines drawn unpaired) [4H30]”, the “rhinovirus release from RD cells” value (rhinovirus A1 [1]) is reported as “did not inhibit viral release”, the “binding to HA protein” value (Influenza HA) is reported as “bound to HA protein” and the rhinovirus entry (rhinovirus A1 [2]) is reported as “blocked rhinovirus entry on the cell membrane”. For the same substance, the “H1N1 viral release, supernatant virus at 8 hpi” value (H1N1 virus [3]) was “significantly inhibited H1N1 viral release from cells”, the “H1N1 viral release, supernatant virus at 18 hpi” value (H1N1 virus [3]) was “inhibited viral release at 18 hpi” and the “inhibition of viral release after removal of GAGs” value (H1N1 virus [3]) was “removal of GAGs reduced the activity of 4H30 in inhibiting viral release”. For the same substance, the “viral HA on cell membrane, anti-HA staining at 18 hpi” value (H1N1 virus [3]) was “more viral HA was detected on the cell membrane”, the “rhinovirus replication in hIPSC-CMs” value (rhinovirus A1 [4]) was “significantly inhibited viral replication in hIPSC-CMs” and the “inhibition of H3N2 virus infection” value (H3N2 virus) was “significantly inhibited group 2 influenza H3N2 virus infection”. The “binding to LDLR” value (LDLR) was “bound to the LDLR receptor of rhinovirus”, the “rhinovirus replication in nasal organoids” value (rhinovirus A1 [5]) was “significantly inhibited rhinovirus replication in nasal organoids” and the “H1N1 replication, cells treated before and after infection (1h-Pre, 1h-Post)” value (H1N1 virus [6]) was “did not show significant antiviral activity when cells were treated before and after viral infection”. The “H1N1 replication, virus treated before infection” value (H1N1 virus [6]) was “inhibited viral replication when the virus was treated with 4H30 before viral infection” and the “effect on neuraminidase activity” value [7] was “did not affect neuraminidase activity”.
